Legend:
[1] = assay type: in vitro ADME, Sprague-Dawley rat; settings: rat serum, 85 min incubation
Method: FIG. 6. In vitro metabolic stability of 2-[^18F]F-ENB in rat and human plasma. (a-d) HPLC traces of metabolites of 2-[^18F]F-ENB incubated with rat plasma at different time points (2 min, 10 min, 30 min, 85 min) and spiked with cold standards.
2-[^18F]F-ENB (600 μCi) was incubated with Sprague-Dawley rat plasma (5.0 mL) at 37° C. Subsequently, 0.4 mL aliquots of the plasma were taken 2, 10, 30, and 85 min after addition of the tracer, and 0.6 mL of MeCN was added to quench the metabolism. The mixture was centrifuged at 13 400 rpm for 10 min to remove proteins, and both the supernatant and the protein pellet were analyzed by gamma counting to calculate the extraction efficiency. […] The radioactive fractions corresponding to each cold standard were collected and radioactivity was quantified using a gamma counter from which the percentage of each metabolite was calculated.

S. aureus Xen29 [2] = assay: PET/CT imaging of rat triceps infection / sterile inflammation model (S. aureus Xen29); assay type: in vivo, Sprague-Dawley rats; settings: 180 min post tracer injection
Method: FIG. 5. PET/CT imaging of rats infected in the right triceps with the bioluminescent Xen29 strain of S. aureus. (A) Experimental design. (B) 2-[^18F]F-ENB-derived radioactivity accumulates in the infected triceps (red arrow) but not the inflamed triceps (yellow arrow) at 3 h post tracer administration.
FIG. 8. PET/CT imaging of 2-[^18F]F-NB in a rat model of S. aureus Xen29 infection. (A) Radiosynthesis of 2-[^18F]F-NB. (i) [^18F]potassium fluoride, Kryptofix222, potassium carbonate, dimethyl sulfoxide, r.t., 10 min; (ii) 2 M potassium hydroxide in H2O, 105° C., 10 min; Overall decay-corrected radiochemical yield: 26% (n=1).
FIG. 10. Time activity curve (TAC) in infected triceps, inflamed triceps and blood and biodistribution of 2-[^18F]F-NB in major organs. (a) The right triceps of the rats were infected with S. aureus Xen 29 and the left triceps were injected with a 10-fold higher burden of heat-killed S. aureus to induce sterile inflammation. The rats were scanned by PET/CT for 120 min (rats with sterile inflammation in the left triceps) immediately starting from tracer administration. The PET scan was separated into ten frames (1-min) and twenty-two frames (5-min). TACs of infected triceps (blue), inflamed triceps (grey) and blood (left heart ventricle, red) are shown. Data represented as mean with standard error of the mean (n=4). (b) Time-dependent accumulation of 2-[^18F]F-NB in infected and inflamed triceps compared to the blood (left heart ventricle). Data are presented as the mean and standard error of the mean (n=4). […]
S. aureus (Newman or Xen29) was cultured overnight by inoculating 5 μL of bacteria from a glycerol stock into 10 mL of fresh cation-adjusted Mueller-Hinton (CAMH) broth or tryptic soy broth (TSB). […] After imaging, the infected triceps were collected, homogenized in PBS using a hand-held homogenizer, and the bacterial burden at the time of imaging was determined by plating the muscle tissues onto solid MH medium. After overnight incubation at 37° C., CFUs were quantified by enumeration. […]

[3] = In vivo metabolite analysis in blood and urine of healthy rats (radio-HPLC); design: species or system Sprague-Dawley rats
Method: FIG. 7. Analysis of metabolites in the plasma and urine of healthy rats after intravenous injection (IV) of 2-[^18F]F-ENB. After IV administration of 2-[^18F]F-ENB, the animals were sacrificed at each time point (n=3 rats) and the blood and urine samples were collected for radio-HPLC analysis. […] The percent of each metabolite in blood (B) and urine (C) is shown.
2-[^18F]F-ENB (1 mCi) was injected via the tail vein into healthy female Sprague-Dawley rats (10 weeks old, Charles River). […] The mixture was centrifuged at 13 400 rpm for 5 min to remove the protein, and the supernatant and protein pellet were analyzed by gamma counter to determine the efficiency of extraction. […] The radioactive fractions corresponding to each cold standard were collected and analyzed using a gamma counter from which the percentage of each metabolite was calculated (n=3).
Analysis of the radioactive metabolites in the urine was performed using a similar procedure from samples obtained from the bladder 30 and 60 min after tracer injection. The urine was diluted with 45% MeCN/H2O, centrifuged at 13 400 rpm for 5 min and spiked with cold standards for radio-HPLC analysis.

S. aureus Xen29 [4] = assay: PET imaging of infective endocarditis rat model; assay type: in vivo, Sprague-Dawley rats; settings: day-3 post infection, 60 min and 120 min post tracer injection
Text: Female Sprague-Dawley rats (weight, ˜200 g, Charles River) were maintained in an anesthetized state with an isofluorane-oxygen gas mixture during surgery. A sterile polyethylene catheter was placed and positioned in the left ventricle through a small incision via the retrograde transcarotid artery approach.
The catheter was left in place throughout the experiments. At 24-hour post-catheterization, the rats were infected intravenously through the tail vein with an inoculum of S. aureus Xen29 of 10^6 CFU in 0.5 mL sterile saline. The animals were imaged for bioluminescence signal in the region of the hearts with IVIS daily after infection. The optimal BLI signal over the heart area was determined to be day-3 post inoculation (FIG. 15A and FIG. 16A).

S. aureus Xen36 = assay: PET imaging of prosthetic joint infection (PJI) mouse model; assay type: in vivo, Balb/c mice; settings: day-2 post infection, 60 min and 120 min post tracer injection
Method: Balb/c mice was anesthetized by inhalation of a mixture of isofluorane and oxygen. A medical-grade stainless steel Kirschner wire was inserted into the distal part of the femur which has been exposed by dislocation of the patella and reamed with a 25-gauge needle. 2 μL of S. aureus Xen36 (4 log 10 CFU) will be inoculated into the knee joint and onto the wire before the surgical incision is closed with absorbable sutures. The correct position of the wire in the canal was performed with X-ray scan. The animals were imaged for bioluminescence signal in the region of the surgical joint with IVIS daily after infection. The optimal BLI signal over the joint area was determined to be day-2 post inoculation (FIG. 20A).

CCOC(=O)c1ccc([N+](=O)[O-])cc1[18F] [2-[^18F]F-ENB, Ethyl 2-[^18F]F-4-nitrobenzoate]
stability of the nitro group [1]: the nitro group was unaffected
localisation of radioactive signal (S. aureus Xen29 [2]): predominantly observed in the infected triceps
radioactive components in blood after IV administration ([3]; blood at 5, 30 and 60 min): 2-[^18F]F-NB was the predominant radioactive component at each time point
radioactive components in urine after IV administration ([3]; urine at 30 and 60 min post injection): the majority of the radioactive signal could be attributed to 2-[^18F]F-NB
PET signal over the heart region (S. aureus Xen29 [4]): a robust radioactive signal was detected over the heart region
PET signal over the joint region (S. aureus Xen36): a robust radioactive signal was detected over the joint region

From patent publication US20230226228A1, “POSITRON IMAGING TOMOGRAPHY IMAGING AGENT COMPOSITION AND METHOD FOR DETECTION OF BACTERIAL INFECTION” (priority 2020, published 2023)
